Data taken from patent publication US20120214802A1, “PYRROLIDINE COMPOUNDS WHICH INHIBIT BETA-SECRETASE ACTIVITY AND METHODS OF USE THEREOF” (priority 2009, published 2012).
pIC50, pKi: −log10 of the molar value. Where two headings read alike, the source gives them in different places.

Key:
[1] = Hepatic intrinsic clearance in liver microsomes; type: in vitro ADME; settings: human, pH 7.4, human liver microsomes
Experimental: To 500 μl of 200 mM Na^+K^+phosphate buffer (pH 7.4), 100 μl of 1 mM EDTA solution was added followed by 100 μl of 2 mg protein/ml human liver microsomes. A 10 μl aliquot of test compound (20 mM stock in 50% acetonitrile) was diluted further with 40 μl of H2O (total assay volume […]. Assay mixture is incubated for 5 minutes at 37° C. The assay was initiated by addition of 250 μl of 4 mM NADPH solution. Incubation was continued at 37° C. Separate reaction mixtures were prepared for 0, 5, 10, 20, and 30 min durations. Individual reactions were halted by addition of 150 μl of 100% acetonitrile. Internal standard (10 μl of 100 ng/ml diazepam solution) was added. Concentration of the test compound in each separate reaction was measured using LC/MS/MS and a standard curve for the test compound according to standard procedures.
The hepatic intrinsic clearance in liver microsome was determined by the following procedure described by Davies and Morris (Davies, B. and Morris, T. (19930) Physiological parameters in laboratory animals and humans. Pharm Res. 10:1093-1095) detailing the relationship of in vitro clearance to physiological parameters in animals and human subjects.
The amount of compound remaining at each time point was expressed relative to the amount present in the initial (0 min) incubation. The relationship of relative amount vs. time was used to determine the half life of the compound in the microsome assay. The concentration independent rate constant, k1, was determined from rectangular hyperbolic fit:
where T is time (in minutes), from the relationship of relative amount vs. time. Alternatively, k1 was determined from a transform of the equation, where
Conversion to in vivo clearance was obtained from the relation (Davies and Morris, 1993):
where v=velocity of metabolism, [S] is the concentration of the compound, and volumes are expressed in mL.

memapsin 2 [2] = target: T1, memapsin 2 (Cricetulus griseus, UniProt G3IAK4); experiment: Cellular Aβ IC50 determination (Aβ40 sandwich ELISA); type: cell-based, Chinese hamster; settings: CHO cells over-expressing human APP695 with London and Swedish mutations, 24 h, read-out: M2 IC50
T1 construct: endogenous in cells; host or cells: Chinese hamster ovary cells over-expressing human APP695 (London + Swedish)
T1 sequence (G3IAK4 22-501): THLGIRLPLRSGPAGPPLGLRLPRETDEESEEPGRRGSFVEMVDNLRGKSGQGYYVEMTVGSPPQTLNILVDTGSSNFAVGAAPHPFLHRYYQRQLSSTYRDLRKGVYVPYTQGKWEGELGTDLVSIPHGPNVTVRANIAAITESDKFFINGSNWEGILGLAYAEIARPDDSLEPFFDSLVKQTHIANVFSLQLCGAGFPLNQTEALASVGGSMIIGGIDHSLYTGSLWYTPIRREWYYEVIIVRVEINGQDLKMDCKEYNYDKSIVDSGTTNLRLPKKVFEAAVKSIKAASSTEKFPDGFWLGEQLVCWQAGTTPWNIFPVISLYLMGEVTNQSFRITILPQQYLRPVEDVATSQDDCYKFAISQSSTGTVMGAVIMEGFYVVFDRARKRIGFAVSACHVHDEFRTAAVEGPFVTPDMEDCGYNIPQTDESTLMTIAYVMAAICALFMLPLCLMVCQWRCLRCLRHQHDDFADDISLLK
How it was run: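 CHO cells overexpressing human APP695 (London and Swedish mutations) treated 48 h post-seeding with serially diluted compounds (top near 4 μM, 0.4% DMSO), 24 h at 37° C, 5% CO2. Medium Aβ40 measured by sandwich ELISA; levels relative to control fitted to 4-parameter IC50 model.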

CYP3A4 = target: T2, CYP3A4 (Homo sapiens, UniProt P08684); experiment: CYP3A4 inhibition (midazolam metabolism in human liver microsomes); type: in vitro ADME; settings: substrate midazolam
T2 construct: host or cells: human liver microsomes
T2 sequence (P08684 whole entry): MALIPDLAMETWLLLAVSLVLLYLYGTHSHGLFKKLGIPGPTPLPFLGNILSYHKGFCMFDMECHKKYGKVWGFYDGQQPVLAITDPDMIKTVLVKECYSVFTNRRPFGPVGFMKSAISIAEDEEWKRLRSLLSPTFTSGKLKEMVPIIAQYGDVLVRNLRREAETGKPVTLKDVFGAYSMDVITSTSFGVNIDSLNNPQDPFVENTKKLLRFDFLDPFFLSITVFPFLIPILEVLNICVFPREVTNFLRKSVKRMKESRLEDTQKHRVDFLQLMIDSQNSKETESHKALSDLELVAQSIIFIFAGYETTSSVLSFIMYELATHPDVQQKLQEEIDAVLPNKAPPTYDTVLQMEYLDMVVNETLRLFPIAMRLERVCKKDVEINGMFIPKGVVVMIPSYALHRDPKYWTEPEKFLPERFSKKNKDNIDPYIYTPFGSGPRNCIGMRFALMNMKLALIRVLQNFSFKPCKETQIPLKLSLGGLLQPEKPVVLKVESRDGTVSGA
Experimental: To evaluate the drug-drug interaction potential for compounds, the potency to inhibit the major metabolic cytochrome CYP450 isoform 3A4 was assessed. The inhibition constant Ki was determined for inhibition of the metabolism of midazolam, a CYP3A4 substrate.
CYP3A4 Ki assays were performed following a recently published protocol with slight modifications (Di, L., Kerns, E. H., Li, S. Q., and Carter, G. T. (2007) Comparison of cytochrome P450 inhibition assays for drug discovery using human liver microsomes with LC-MS, rhCYP450 isozymes with fluorescence, and double cocktail with LC-MS. International Journal of Pharmaceutics 335: 1-11). The P450 inhibition assay was performed in 96-well plates at 37.2° C. in a shaking incubator. The compounds were diluted from 5 mM stocks in 100% DMSO and incubated at seven final concentrations from 0.078 to 10 μM (0.1% DMSO in each final incubation), with human liver microsomes (HLM) at a final protein concentration of 0.1 mg/mL protein and a substrate concentration ranging from 1.25 to 10 μM.
The assay was standardized for both phosphate buffer (100 mM, pH 7.4) and the NADPH regenerating system (MgCl2, 3.3 mM; G6P, 3.3 mM; G6PD, 1 U/ml; NADP+, 1.3 mM). Eight replicate control samples (0.1% DMSO, no compound) were prepared. Assays (200 μL) were set up by mixing HLM+substrate stock, 10 μL of test article in 2% DMSO, and the substrate before initiating the reaction with the addition of the regenerating system mixture. Reactions were quenched following incubation for 20, 30 and 40 minutes as described following.
After incubation for the specified time in a humidified shaking incubator, 20 μL of the reaction mixture was removed and the reactions were terminated by adding 200 μL of cold acetonitrile. Samples were centrifuged at 1000×g for 15 minutes in Solvinert filter plate. The receptor plate was dried via speed vacuum at 40° C. The sample was reconstituted with a reconstitution buffer composed of 10% acetonitrile, 10% DMSO, 80% H2O with an internal standard added at a concentration of 100 ng/ml. MS-Analysis was completed using LC-MS/MS. Formation of 1′-hydroxymidazolam was measured by monitoring a specific SRM (342>203) transition for the CYP3A4 metabolite.
Data were expressed as the relative quantity of midazolam metabolite relative to control incubations. Initial velocities were obtained by multiplying the relative quantity by the initial substrate concentration and dividing by the incubation duration. Data were transformed to inverse of inivital velocity and expressed vs. inhibitor concentration [I] for determination of Ki by the Dixon method (Dixon, M. (1953) Biochemical Journal 55: 170-171) using where intercept [I]=−Ki was determined at multiple substrate concentrations.

memapsin 2 [3] = target: memapsin 2 (Homo sapiens, UniProt P56817); experiment: Inhibition of memapsin 2 beta-secretase activity (fluorogenic substrate FS-2); type: biochemical; settings: pH 4, 37° C., read-out: M2 Ki
Chain of memapsin 2 (Homo sapiens, UniProt P56817) (P56817 46-501): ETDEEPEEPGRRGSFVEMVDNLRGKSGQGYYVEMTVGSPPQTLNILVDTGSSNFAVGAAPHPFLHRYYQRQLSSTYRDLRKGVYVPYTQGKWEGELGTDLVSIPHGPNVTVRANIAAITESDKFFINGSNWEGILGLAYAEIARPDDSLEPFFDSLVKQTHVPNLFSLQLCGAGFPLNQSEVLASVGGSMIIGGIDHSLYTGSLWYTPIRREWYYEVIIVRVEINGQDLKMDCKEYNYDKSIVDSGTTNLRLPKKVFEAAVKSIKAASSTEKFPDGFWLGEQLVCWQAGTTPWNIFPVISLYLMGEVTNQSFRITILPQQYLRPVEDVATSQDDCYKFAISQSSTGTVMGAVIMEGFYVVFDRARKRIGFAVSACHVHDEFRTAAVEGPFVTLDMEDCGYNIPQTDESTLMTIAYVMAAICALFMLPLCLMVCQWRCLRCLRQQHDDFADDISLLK
How it was run: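 Memapsin 2 pre-incubated with compound for 20 min at pH 4, 37° C. Reaction started with fluorogenic substrate FS-2, […], derived from Swedish-variant APP beta-secretase site; inhibition measured from fluorescence.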

cathepsin D = cathepsin D (Homo sapiens, UniProt P07339); experiment: Inhibition of cathepsin D activity (MALDI-TOF, substrate ELDLAVEFWHDR); type: biochemical; settings: substrate peptide ELDLAVEFWHDR, pH 4.1, 37 degrees C, read-out: CD Ki
Chain of cathepsin D (P07339 65-412, species assumed): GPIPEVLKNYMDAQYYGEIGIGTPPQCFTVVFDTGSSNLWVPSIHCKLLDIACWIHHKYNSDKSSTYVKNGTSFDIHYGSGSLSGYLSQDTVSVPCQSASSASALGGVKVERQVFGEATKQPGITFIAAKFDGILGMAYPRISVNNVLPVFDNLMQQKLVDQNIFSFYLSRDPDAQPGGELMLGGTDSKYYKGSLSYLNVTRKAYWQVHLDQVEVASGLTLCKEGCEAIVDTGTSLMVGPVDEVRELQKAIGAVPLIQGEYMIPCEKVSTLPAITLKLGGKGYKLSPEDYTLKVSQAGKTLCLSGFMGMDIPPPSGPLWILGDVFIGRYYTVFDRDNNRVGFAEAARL
Experimental: [The source words this procedure for another target and reports this target under the same test.] A substrate peptide NH3-ELDLAVEFWHDR-CO2 (SEQ ID NO.: 1) was dissolved at 2 mg/mL in 10% glacial acetic acid and diluted into 0.009M NaOH to obtain μM concentration at pH 4.1. After equilibration at 37 degrees C., the reactions were initiated by the addition of an aliquot of memapsin 2. Aliquots were removed at time intervals, and combined with an equal volume of MALDI-TOF matrix (α-hydroxycinnamic acid in acetone, 20 mg/mL) and immediately spotted in duplicate onto a stainless-steel MALDI sample plate. MALDI-TOF mass spectrometry was performed on a PE Biosystems Voyager DE. The instrument was operated at 25,000 accelerating volts in positive mode with a 150 ns delay. Ions with a mass-to-charge ratio (m/z) were detected in the range of 650-2000 atomic mass units. Data were analyzed by the Voyager Data Explorer module to obtain ion intensity data for mass species of substrates and corresponding products in a given mixture. Relative product formation was calculated as the ratio of signal intensity of the product to the sum of signal intensities of both product and the corresponding substrate. Relative product formed per unit time was obtained from non-linear regression analysis of the data representing the initial 15% formation of product using the model:
where k was the relative hydrolytic rate constant and T was time in seconds. Initial rates were expressed relative to uninhibited controls and fit to a tight-binding model of competitive inhibition as above.

[4] = in vitro clearance, read-out: HLM CL

Cc1csc([C@H]2CCCN2C(=O)c2cc(F)cc(C(=O)N[C@@H](Cc3ccccc3)[C@H](O)[C@H]3CCCN3)c2)n1 [1-32, 3-fluoro-N-((1R,2S)-1-hydroxy-3-phenyl-1-((R)-pyrrolidin-2-yl)propan-2-yl)-5-((R)-2-(4-methylthiazol-2-yl)pyrrolidine-1-carbonyl)benzamide]
CLint scaled at 200 μM [1, 4]: < 400 mL/min/kg
pIC50 (memapsin 2 [2]): < 6.00
pKi (CYP3A4; read-out: CYP 3A4Ki): 5.00 to 5.30
pKi (memapsin 2 [3]): > 6.60

Cc1csc([C@H]2CCCN2C(=O)c2cccc(C(=O)N[C@@H](Cc3ccccc3)[C@H](O)[C@H]3CCCN3)c2)n1 [1-40, N-((1R,2S)-1-hydroxy-3-phenyl-1-((R)-pyrrolidin-2-yl)propan-2-yl)-3-((R)-2-(4-methylthiazol-2-yl)pyrrolidine-1-carbonyl)benzamide]
CLint scaled at 200 μM [1, 4]: < 400 mL/min/kg
pIC50 (memapsin 2 [2]): 6.00 to 6.30
pKi (CYP3A4; read-out: CYP 3A4Ki): 5.00 to 5.30
pKi (memapsin 2 [3]): > 6.60

Cc1csc(CN(C)C(=O)c2cccc(C(=O)N[C@@H](Cc3cc(F)cc(F)c3)[C@H](O)[C@H]3CCCN3)c2)n1 [1-41, N1-((1R,2S)-3-(3,5-difluorophenyl)-1-hydroxy-1-((R)-pyrrolidin-2-yl)propan-2-yl)-N3-methyl-N3-((4-methylthiazol-2-yl)methyl)isophthalamide]
CLint scaled at 200 μM [1, 4]: < 400 mL/min/kg
pIC50 (memapsin 2 [2]): < 6.00
pKi (CYP3A4; read-out: CYP 3A4Ki): < 5.00
pKi (memapsin 2 [3]): > 6.60

Cc1cc(C(=O)N[C@@H](Cc2cc(F)cc(F)c2)[C@H](O)[C@H]2CCCN2)cc(C(=O)N2CCC[C@@H]2c2nc(C)cs2)c1 [1-64, N-((1R,2S)-3-(3,5-difluorophenyl)-1-hydroxy-1-((R)-pyrrolidin-2-yl)propan-2-yl)-3-methyl-5-((R)-2-(4-methylthiazol-2-yl)pyrrolidine-1-carbonyl)benzamide]
pKi (cathepsin D): < 6.30
pKi (memapsin 2 [3]): > 6.60

Cc1coc([C@H]2CCCN2C(=O)c2cc(C(=O)N[C@@H](Cc3cc(F)cc(F)c3)[C@H](O)[C@H]3CCCN3)cc(-c3ncco3)c2)n1 [1-69, N-((1R,2S)-3-(3,5-difluorophenyl)-1-hydroxy-1-((R)-pyrrolidin-2-yl)propan-2-yl)-3-((R)-2-(4-methyloxazol-2-yl)pyrrolidine-1-carbonyl)-5-(oxazol-2-yl)benzamide]
pKi (cathepsin D): 6.30 to 6.52
pKi (memapsin 2 [3]): > 6.60

Cc1csc([C@H]2CCCN2C(=O)c2cc(C(=O)N[C@@H](Cc3ccccc3)[C@H](O)CNCc3cncc(C(C)C)c3)cc(-c3ccco3)c2)n1 [2-2, 3-(furan-2-yl)-N-((2S,3R)-3-hydroxy-4-((5-isopropylpyridin-3-yl)methylamino)-1-phenylbutan-2-yl)-5-((R)-2-(4-methylthiazol-2-yl)pyrrolidine-1-carbonyl)benzamide, reference compound]
CLint scaled at 200 μM [1, 4]: > 700 mL/min/kg
pIC50 (memapsin 2 [2]): > 6.30
pKi (CYP3A4; read-out: CYP 3A4Ki): > 6.00
pKi (memapsin 2 [3]): > 6.60

Cc1cc(C(=O)N[C@@H](Cc2ccccc2)[C@H](O)CNCc2cncc(C(C)(C)C)c2)cc(C(=O)N2CCC[C@@H]2c2nc(C)co2)c1 [2-3, N-((2S,3R)-4-((5-tert-butylpyridin-3-yl)methylamino)-3-hydroxy-1-phenylbutan-2-yl)-3-methyl-5-((R)-2-(4-methyloxazol-2-yl)pyrrolidine-1-carbonyl)benzamide, reference compound]
CLint scaled at 200 μM [1, 4]: > 700 mL/min/kg
CLint scaled at 200 μM ([1]; read-out: hepatic intrinsic clearance in liver microsomes (HLMCL)): > 1000 mL/min/kg
pIC50 (memapsin 2 [2]): > 6.30
pKi (CYP3A4): 6.14
pKi (CYP3A4; read-out: CYP 3A4Ki): > 6.00
pKi (memapsin 2 [3]): > 6.60

Cc1coc([C@H]2CCCN2C(=O)c2cccc(C(=O)N[C@@H](Cc3ccccc3)[C@H](O)CNCc3cncc(C(C)(C)C)c3)c2)n1 [2-4, N-((2S,3R)-4-((5-tert-butylpyridin-3-yl)methylamino)-3-hydroxy-1-phenylbutan-2-yl)-3-((R)-2-(4-methyloxazol-2-yl)pyrrolidine-1-carbonyl)benzamide, reference compound]
CLint scaled at 200 μM [1, 4]: > 700 mL/min/kg
pIC50 (memapsin 2 [2]): > 6.30
pKi (CYP3A4; read-out: CYP 3A4Ki): > 6.00
pKi (memapsin 2 [3]): > 6.60

CCn1cc(CNC[C@@H](O)[C@H](Cc2ccccc2)NC(=O)c2cc(C)cc(C(=O)N3CCC[C@@H]3c3nc(C)co3)c2)cn1 [2-5, N-((2S,3R)-4-((1-ethyl-1H-pyrazol-4-yl)methylamino)-3-hydroxy-1-phenylbutan-2-yl)-3-methyl-5-((R)-2-(4-methyloxazol-2-yl)pyrrolidine-1-carbonyl)benzamide, reference compound]
CLint scaled at 200 μM [1, 4]: > 700 mL/min/kg
pIC50 (memapsin 2 [2]): > 6.30
pKi (CYP3A4; read-out: CYP 3A4Ki): 5.30 to 6.00
pKi (memapsin 2 [3]): > 6.60

Cc1coc([C@H]2CCCN2C(=O)c2cc(CF)cc(C(=O)N[C@@H](Cc3ccccc3)[C@H](O)CNCc3cccc(C(C)(C)C)c3)c2)n1 [2-7, N-((2S,3R)-4-(3-tert-butylbenzylamino)-3-hydroxy-1-phenylbutan-2-yl)-3-(fluoromethyl)-5-((R)-2-(4-methyloxazol-2-yl)pyrrolidine-1-carbonyl)benzamide, reference compound]
CLint scaled at 200 μM [1, 4]: > 700 mL/min/kg
pIC50 (memapsin 2 [2]): > 6.30
pKi (CYP3A4; read-out: CYP 3A4Ki): 5.30 to 6.00
pKi (memapsin 2 [3]): > 6.60
